Results reported in publication PMC7059793, “Novel Chemical Scaffolds to Inhibit the Neutral Amino Acid Transporter B^0AT1 (SLC6A19), a Potential Target to Treat Metabolic Diseases” (Frontiers in Pharmacology, 2020).

How the values were obtained:
LAT1 = biological target: T1, LAT1 (Homo sapiens, UniProt Q01650); experiment: Na+-independent [14C]leucine uptake in 143B cells; type: cell-based; settings: inhibitor at 10 μM and 50 μM
T1 construct: endogenous in cells; host or cells: 143B TK- cells (human osteosarcoma)
T1 sequence (Q01650 whole entry): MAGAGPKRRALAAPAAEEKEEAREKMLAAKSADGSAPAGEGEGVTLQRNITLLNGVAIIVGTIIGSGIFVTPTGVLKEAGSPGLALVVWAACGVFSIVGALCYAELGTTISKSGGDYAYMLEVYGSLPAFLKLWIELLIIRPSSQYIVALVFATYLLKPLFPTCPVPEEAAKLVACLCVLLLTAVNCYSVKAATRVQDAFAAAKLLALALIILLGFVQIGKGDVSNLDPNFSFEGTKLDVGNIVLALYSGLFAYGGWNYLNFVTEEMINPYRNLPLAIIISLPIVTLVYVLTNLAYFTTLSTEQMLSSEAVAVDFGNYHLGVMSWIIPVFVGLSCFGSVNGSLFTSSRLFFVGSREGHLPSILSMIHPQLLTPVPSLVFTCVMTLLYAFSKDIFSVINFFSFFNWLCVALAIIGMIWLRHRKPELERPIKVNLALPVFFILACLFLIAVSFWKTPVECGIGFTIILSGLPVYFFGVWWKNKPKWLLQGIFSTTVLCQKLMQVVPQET
T1 sequence (P08195 102-630 partner): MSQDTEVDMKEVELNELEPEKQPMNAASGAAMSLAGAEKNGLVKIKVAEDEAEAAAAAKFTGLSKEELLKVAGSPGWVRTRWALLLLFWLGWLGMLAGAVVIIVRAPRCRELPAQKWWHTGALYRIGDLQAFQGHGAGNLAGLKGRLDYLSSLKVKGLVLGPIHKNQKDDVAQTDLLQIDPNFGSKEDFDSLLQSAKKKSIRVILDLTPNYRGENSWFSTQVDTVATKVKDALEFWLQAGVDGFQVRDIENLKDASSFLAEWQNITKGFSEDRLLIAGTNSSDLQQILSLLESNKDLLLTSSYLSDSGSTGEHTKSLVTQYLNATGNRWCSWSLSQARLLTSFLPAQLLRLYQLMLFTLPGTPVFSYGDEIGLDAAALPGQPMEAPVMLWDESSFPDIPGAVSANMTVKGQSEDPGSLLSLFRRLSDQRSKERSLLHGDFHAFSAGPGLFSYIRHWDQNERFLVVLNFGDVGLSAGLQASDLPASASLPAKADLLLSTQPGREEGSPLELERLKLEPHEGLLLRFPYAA
Method: CHO-BC cells with passage numbers from 3 to 10 were used in radio-labelled uptake assays. Before the assay, the cells were seeded out in 35 mm dishes (Corning) and maintained for 48–72 h until reaching 80–90% confluence. To initiate transport, the culture medium was removed and the cells washed three times with HBSS + G. Subsequently, cells were incubated with HBSS + G, radiolabelled substrates (150 μM L-[U-^14C]leucine or 150 μM L-[U-^14C]isoleucine) and inhibitors as indicated in the figures or table in a 37°C water bath for 6 min. To terminate transport, cells were washed three times with ice-cold HBSS pH 7.5. For measuring sodium-independent uptake, NaCl in Hank’s buffer was replaced by NMDG-Cl. Cells were then harvested by homogenizing with 500 µl of 0.1 M HCl. An aliquot of 400 µl was used for scintillation counting and the remainder for protein quantification. To investigate inhibition of ASCT2, uptake of 100 μM [^14C]glutamine was measured in 143B cells in the absence and presence of inhibitor (at 10 μM and 50 μM). To measure inhibition of LAT1, uptake of [^14C]leucine was measured in HBSS + G in which NaCl was replaced by NMDG-Cl in 143B cells in the absence and presence of inhibitor (at 10 μM and 50 μM).
To investigate the specificity of the compounds further, we tested them in human 143B osteosarcoma cells, which we have extensively characterised previously and used for pharmacological analysis ([Broer et al., 2018]). Na^+-dependent glutamine transport in 143B cells is largely mediated by ASCT2 (SLC1A5). Na^+-independent transport of leucine, by contrast, is mediated entirely by LAT1.

B^0AT1 = biological target: T2, B^0AT1 (Mus musculus, UniProt Q9D687); experiment: Na+-dependent leucine uptake in inverted sections of mouse intestine; settings: 50 μM inhibitor, 150 μM [14C]leucine
T2 construct: from tissue; host or cells: small intestine of C57/BL6J female mice, inverted 1 cm sections
T2 sequence (Q9D687 whole entry): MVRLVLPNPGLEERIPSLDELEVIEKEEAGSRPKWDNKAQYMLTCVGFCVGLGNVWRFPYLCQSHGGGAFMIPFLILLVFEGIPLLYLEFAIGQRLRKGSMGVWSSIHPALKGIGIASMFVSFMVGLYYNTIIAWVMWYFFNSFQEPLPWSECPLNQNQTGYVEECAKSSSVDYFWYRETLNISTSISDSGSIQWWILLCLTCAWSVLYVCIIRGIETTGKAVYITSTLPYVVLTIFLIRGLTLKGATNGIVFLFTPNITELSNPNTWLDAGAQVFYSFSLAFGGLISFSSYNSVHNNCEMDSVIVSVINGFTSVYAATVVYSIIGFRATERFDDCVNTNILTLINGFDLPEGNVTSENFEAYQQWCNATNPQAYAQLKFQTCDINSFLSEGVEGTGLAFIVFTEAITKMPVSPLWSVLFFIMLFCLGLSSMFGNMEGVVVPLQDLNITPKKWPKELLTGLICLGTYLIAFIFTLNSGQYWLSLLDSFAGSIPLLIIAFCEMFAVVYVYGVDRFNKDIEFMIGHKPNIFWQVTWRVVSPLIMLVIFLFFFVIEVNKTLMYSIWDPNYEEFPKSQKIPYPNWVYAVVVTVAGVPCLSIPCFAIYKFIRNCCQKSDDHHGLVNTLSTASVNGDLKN
T2 sequence (Q8R0I0 18-805 partner): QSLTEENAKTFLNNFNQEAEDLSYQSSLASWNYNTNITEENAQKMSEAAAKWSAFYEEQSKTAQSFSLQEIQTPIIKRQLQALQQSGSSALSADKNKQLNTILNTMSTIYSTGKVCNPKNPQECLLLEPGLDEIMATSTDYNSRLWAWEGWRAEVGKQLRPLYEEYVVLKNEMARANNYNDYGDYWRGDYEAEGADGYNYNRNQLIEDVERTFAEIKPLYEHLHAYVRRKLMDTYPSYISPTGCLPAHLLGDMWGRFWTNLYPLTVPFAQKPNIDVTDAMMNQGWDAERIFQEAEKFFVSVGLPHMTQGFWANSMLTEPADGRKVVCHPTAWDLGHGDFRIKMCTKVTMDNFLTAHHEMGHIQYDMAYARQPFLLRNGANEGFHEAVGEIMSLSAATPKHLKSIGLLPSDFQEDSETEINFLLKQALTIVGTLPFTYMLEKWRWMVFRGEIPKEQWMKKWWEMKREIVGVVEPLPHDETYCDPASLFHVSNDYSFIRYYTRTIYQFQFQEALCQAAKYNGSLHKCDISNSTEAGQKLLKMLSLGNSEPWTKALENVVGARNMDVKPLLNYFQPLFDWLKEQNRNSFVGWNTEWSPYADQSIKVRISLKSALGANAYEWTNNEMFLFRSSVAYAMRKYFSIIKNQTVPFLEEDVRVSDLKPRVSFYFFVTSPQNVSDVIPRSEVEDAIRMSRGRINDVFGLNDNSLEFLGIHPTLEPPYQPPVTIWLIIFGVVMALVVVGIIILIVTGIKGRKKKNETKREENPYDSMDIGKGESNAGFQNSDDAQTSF
Excerpt: For uptake assays with inverted sections of mouse small intestine, 5–7 months old C57/BL6J female mice were sacrificed by cervical dislocation (Animal ethics protocol A2016/41, Australian National University). The small intestine was removed and the intestinal lumen was rinsed with ice-cold 0.9% NaCl. Subsequently, the small intestine was inverted on a metal rod to expose the mucosa. The inverted intestine was then cut into 1 cm pieces and fitted onto enzyme spatulas, which were immersed in HBSS pH 7.5 supplemented with 1 mM glutamine and protease inhibitor (Roche Complete). After washing twice in modified HBSS pH 7.5 (containing 10% NaCl + 90% NMDG-Cl for Na^+-dependent uptake and 100% NMDG-Cl for Na^+-independent uptake, both buffers supplemented with 1 mM glutamine) to remove residual compounds, the segments were pre-incubated in the same buffer in the presence of 50 µM of transport inhibitor and protease inhibitors for 15 min. At the end of the pre-incubation, the segments were transferred for 30 s into uptake buffer at 37°C (HBSS pH 7.5 supplemented with 150 μM [^14C]leucine and 50 µM transport inhibitor). For Na^+-dependent uptake regular HBSS was used, for Na^+-independent uptake NaCl was replaced by NMDG-Cl. Subsequently, the segments were rinsed three times in ice-cold HBSS pH 7.5 and lysed in 400 µl of 10% SDS. After 2–3 h, the lysed tissues were analyzed by scintillation counting.
To test whether the novel B^0AT1 inhibitors block the transporter in a more physiological environment, we studied leucine uptake in inverted sections of mouse intestine ( Figure 6C ). We established previously that Na^+-dependent leucine uptake (blue bars) in this system is mediated by B^0AT1 ([Broer et al., 2011]). In addition leucine uptake has a Na^+-independent transport component (salmon coloured bars), which is most likely mediated by rbat/b^0,+AT. Because of variability between animals, all data were normalized to uninhibited controls from the same animal.

Row | Compound | Inhibition of Na+-independent leucine uptake (LAT1) (LAT1) | Inhibition of Na+-dependent leucine uptake (B^0AT1) ex vivo (B^0AT1)
1 | Cc1cc(C(=O)Nc2ccc(Cl)cc2C(F)(F)F)no1 [CB3] | failed to inhibit | more potent
2 | Cc1cc(OCC(=O)NC(C)C)cc(C)c1Cl [Compound E4] | failed to inhibit | limited capacity to inhibit B^0AT1
3 | COc1ccccc1Nc1nc2ccccc2s1 [Compound E18] | failed to inhibit | more potent
